Consider six compounds from patent US20220370440A1 (Lead Discovery Center GmbH, priority 2018, published 2022).

In one series the target is T1, HER2 INS YVMA (Homo sapiens, UniProt P04626, INS775YVMA).
T1 construct: purchased DPF
In words: Lance Kinase Activity Assay, HER2 INS YVMA (Her2 Exon 20 INSYVMA Lance). To be noted: biochemical Lance assay. The class given is biochemical. In outline: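 Kinase phosphorylates a ULight-labelled peptide substrate; Eu anti-phospho antibody gives TR-FRET (ex 340 nm, em 665/615 nm). Compounds in 1:3 serial dilution over 8 steps, reaction started with ATP, 1 h at room temperature, stopped with EDTA-containing detection mix for 1 h. IC50 from sigmoidal dose-response curves.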

In another series the target is EGFR wt (Homo sapiens, UniProt P00533). Nature of the series: EGFR wt Lance assay. The class given is biochemical. As for the experimental part: (§1) Inhibition is indicated as […] [nM] (“−”=not measured). Compounds having an activity designated as “A” provided an IC50≤100 nM; compounds having an activity designated as “B” provided an 100 nM<IC50≤500 nM; compounds having an activity designated as “C” provided an 500 nM<IC50≤1000 nM; compounds having an activity designated as “D” provided an 1000 nM<IC50≤100000 nM; and compounds having an activity designated as “E” provided an IC50>10000 nM.
EGFR wt, sequence (P00533 25-1210): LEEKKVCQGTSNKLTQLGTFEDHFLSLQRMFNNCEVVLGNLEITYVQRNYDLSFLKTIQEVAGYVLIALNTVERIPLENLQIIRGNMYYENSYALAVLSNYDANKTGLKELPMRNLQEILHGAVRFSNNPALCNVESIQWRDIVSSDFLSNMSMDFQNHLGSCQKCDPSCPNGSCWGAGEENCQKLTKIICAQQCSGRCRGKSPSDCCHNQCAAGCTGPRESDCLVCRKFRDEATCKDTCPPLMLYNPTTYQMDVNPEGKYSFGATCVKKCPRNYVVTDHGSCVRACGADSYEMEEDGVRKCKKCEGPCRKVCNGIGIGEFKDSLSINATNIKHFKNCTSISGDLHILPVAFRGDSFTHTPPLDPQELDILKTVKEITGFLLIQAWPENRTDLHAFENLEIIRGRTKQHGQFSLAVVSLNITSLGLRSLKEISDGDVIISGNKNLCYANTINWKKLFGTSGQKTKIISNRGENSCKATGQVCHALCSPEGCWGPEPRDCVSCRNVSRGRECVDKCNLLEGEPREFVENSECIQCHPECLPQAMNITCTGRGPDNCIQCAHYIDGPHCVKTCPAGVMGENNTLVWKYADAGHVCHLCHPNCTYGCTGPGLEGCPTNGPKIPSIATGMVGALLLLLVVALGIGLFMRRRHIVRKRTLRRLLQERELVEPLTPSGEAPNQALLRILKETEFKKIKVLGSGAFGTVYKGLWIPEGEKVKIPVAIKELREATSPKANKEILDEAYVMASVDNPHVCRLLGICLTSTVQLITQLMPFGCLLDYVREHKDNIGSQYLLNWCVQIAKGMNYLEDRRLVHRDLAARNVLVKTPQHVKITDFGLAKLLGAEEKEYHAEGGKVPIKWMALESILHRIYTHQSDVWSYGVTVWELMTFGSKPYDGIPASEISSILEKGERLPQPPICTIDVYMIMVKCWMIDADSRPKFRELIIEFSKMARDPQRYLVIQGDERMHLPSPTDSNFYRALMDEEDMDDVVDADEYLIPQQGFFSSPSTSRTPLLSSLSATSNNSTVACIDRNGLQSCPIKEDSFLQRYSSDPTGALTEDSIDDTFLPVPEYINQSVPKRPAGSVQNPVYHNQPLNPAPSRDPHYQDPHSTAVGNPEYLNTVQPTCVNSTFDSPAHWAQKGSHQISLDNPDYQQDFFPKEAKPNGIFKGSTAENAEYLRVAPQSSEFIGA

Series [1] has as its target EGFR Exon 20 INSNPH Ba/F3 (Homo sapiens, UniProt P00533, DUP771-773, cells depend on it). In words: EGFR Exon 20 INSNPH Ba/F3 CellTiter-Glo. The class given is cell-based. The conditions noted are these: CellTiter-Glo, 72 h, read-out: EGFR Exon 20 INSNPH Ba/F3 CTG IC50. Put shortly:
(§2)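 IC50 values, binned A (≤100 nM) through E (>10000 nM), come from luminescent ATP quantitation of viable mutant-driven Ba/F3 cells. Compound exposure lasted 72 h, starting 24 h post-seeding; DMSO and 10 μM staurosporine served as controls, Z′ ≥0.5 required.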

The subject of a further series is H1975. Nature of the series: H1975 CellTiter-Glo. The series is classed as cell-based. The conditions noted are these: Homo sapiens, NCI-H1975; 72 h compound incubation; read-out: H1975 CTG IC50. Put shortly:
(§3)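 Antiproliferative IC50 values come from a 72 h treatment of cultured cells, measured by CellTiter-Glo ATP luminescence. Only runs with a Z′-factor of at least 0.5, calculated from 16 vehicle and 16 Staurosporine (10 μM) control wells, are reported.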

Series [2] concerns the target Her2 Exon 20 INSYVMA Ba/F3 (Homo sapiens, UniProt P04626, DUP772-775, cells depend on it). In words: Her2 Exon 20 INSYVMA Ba/F3 CellTiter-Glo. The series is classed as cell-based. The conditions noted are these: CellTiter-Glo, 72 h, read-out: Her2 Exon 20 INSYVMA Ba/F3 CTG IC50. Put shortly: as §2
A further series deals with EGFR T790ML858R (Homo sapiens, UniProt P00533, L858R/T790M). In words: EGFR T790ML858R Lance assay. The class given is biochemical. Here is the method: as §1
EGFR T790ML858R, sequence (P00533 25-1210 T790M/L858R): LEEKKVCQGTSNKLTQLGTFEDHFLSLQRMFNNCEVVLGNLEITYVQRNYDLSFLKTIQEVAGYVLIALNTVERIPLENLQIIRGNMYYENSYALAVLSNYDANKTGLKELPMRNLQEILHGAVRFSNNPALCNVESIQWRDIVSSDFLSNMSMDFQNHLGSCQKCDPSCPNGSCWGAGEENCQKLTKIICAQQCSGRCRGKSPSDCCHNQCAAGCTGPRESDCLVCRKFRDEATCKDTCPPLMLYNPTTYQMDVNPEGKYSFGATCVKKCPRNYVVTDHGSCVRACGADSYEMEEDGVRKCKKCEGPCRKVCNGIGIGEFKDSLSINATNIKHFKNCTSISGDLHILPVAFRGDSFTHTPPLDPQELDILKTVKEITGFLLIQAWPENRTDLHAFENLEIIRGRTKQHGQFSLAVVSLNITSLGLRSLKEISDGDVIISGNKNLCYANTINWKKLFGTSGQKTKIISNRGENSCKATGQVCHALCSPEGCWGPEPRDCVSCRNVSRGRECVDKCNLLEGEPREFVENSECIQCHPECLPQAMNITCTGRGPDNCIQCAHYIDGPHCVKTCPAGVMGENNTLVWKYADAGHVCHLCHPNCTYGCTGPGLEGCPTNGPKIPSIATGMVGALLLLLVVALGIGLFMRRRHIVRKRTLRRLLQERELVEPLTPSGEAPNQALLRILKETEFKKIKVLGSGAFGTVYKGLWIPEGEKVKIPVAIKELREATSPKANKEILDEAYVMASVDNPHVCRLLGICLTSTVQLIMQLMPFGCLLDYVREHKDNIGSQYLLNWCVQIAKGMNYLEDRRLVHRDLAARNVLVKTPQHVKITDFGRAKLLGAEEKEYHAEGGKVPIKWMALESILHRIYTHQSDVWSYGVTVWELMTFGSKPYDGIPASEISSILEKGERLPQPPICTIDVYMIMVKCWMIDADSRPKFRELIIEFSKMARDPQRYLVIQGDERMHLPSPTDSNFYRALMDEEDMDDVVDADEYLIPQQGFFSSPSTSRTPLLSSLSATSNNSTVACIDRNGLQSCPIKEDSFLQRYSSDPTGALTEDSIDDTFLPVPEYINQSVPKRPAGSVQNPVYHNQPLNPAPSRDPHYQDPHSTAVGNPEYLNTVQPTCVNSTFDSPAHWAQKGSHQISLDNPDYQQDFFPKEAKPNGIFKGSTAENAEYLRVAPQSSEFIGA
A short description of series [3]: Metabolic stability in mouse liver microsomes without cofactor NADPH. To be noted: 3 μM test compound, mouse liver microsomes, without NADPH, 50 min, 37° C., LC-MS/MS. The class given is in vitro ADME. Put shortly: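 Test compound (3 μM) was incubated with mouse liver microsomes without NADPH at 37° C. Depletion was followed by LC-MS/MS over time up to 50 min.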

A further series relates to A431. In words: A431 CellTiter-Glo. The series is classed as cell-based. The conditions noted are these: Homo sapiens, A-431; 72 h compound incubation; read-out: A431 CTG IC50. In outline: as §3

Structures are written as SMILES.

Her2 Exon 20 INSYVMA Ba/F3, sequence (P04626 with tags, fused parts or gaps DUP772-775): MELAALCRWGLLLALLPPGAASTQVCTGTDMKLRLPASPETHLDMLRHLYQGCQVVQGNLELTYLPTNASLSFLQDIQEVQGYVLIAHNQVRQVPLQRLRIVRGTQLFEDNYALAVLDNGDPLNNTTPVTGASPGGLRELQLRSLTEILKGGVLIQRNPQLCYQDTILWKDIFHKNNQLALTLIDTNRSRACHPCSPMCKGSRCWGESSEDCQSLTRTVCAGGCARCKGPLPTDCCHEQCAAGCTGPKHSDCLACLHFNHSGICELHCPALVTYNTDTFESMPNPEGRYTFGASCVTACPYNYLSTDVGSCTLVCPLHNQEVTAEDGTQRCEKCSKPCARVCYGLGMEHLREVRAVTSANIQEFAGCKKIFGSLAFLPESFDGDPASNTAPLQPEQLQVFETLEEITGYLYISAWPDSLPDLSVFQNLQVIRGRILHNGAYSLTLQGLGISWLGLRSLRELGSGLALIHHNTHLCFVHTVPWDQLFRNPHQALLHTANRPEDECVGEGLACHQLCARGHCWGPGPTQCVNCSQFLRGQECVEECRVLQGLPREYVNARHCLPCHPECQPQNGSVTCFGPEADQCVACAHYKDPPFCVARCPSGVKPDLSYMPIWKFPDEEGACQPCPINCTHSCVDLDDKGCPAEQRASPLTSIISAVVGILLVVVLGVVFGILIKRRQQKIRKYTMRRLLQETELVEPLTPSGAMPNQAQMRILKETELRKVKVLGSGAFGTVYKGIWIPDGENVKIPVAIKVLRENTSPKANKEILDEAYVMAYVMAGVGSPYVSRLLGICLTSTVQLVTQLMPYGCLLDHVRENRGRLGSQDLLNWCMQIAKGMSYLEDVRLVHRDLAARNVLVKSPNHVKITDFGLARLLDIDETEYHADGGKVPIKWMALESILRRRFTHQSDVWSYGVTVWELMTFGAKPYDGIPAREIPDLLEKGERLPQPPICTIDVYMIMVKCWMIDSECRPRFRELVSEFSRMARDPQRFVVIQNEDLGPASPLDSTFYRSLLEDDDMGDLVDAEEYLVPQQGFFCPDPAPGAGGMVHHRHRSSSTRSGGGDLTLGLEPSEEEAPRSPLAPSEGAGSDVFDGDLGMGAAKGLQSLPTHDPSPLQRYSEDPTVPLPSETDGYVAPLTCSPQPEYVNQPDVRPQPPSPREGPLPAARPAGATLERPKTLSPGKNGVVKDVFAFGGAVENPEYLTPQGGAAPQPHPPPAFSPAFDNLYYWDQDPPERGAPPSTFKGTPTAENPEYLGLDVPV
EGFR Exon 20 INSNPH Ba/F3, sequence (P00533 with tags, fused parts or gaps DUP771-773): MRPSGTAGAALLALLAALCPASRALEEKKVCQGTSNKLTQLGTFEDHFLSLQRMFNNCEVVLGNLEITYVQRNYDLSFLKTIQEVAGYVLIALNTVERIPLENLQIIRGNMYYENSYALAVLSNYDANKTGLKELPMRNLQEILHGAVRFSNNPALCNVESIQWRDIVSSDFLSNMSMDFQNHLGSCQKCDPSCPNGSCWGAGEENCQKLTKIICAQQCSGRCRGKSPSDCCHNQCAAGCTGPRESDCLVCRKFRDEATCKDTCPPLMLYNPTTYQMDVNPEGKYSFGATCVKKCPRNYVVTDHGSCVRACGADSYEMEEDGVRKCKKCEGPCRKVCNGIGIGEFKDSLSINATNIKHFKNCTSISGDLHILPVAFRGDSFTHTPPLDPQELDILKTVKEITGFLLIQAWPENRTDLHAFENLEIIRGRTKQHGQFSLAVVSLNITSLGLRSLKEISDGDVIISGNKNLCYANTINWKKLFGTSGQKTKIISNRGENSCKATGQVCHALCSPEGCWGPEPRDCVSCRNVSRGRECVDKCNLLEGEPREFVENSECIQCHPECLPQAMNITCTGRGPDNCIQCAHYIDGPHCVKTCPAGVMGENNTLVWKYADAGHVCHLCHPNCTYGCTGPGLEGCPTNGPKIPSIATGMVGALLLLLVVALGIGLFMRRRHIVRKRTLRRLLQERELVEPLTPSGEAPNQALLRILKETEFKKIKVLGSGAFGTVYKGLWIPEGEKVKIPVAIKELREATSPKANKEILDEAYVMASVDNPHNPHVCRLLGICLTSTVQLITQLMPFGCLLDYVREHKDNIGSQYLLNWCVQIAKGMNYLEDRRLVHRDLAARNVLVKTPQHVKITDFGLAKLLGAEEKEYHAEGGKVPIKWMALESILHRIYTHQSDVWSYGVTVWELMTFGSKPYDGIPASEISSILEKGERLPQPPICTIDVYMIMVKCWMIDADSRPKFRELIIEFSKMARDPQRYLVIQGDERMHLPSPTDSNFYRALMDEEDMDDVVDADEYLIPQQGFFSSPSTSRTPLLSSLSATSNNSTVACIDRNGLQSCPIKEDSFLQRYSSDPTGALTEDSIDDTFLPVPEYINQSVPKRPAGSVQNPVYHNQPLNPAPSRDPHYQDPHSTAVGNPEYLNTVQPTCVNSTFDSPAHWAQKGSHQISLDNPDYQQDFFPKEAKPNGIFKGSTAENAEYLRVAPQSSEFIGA

As for `C=CC(=O)Nc1cc(-c2c(-c3ccc(OCCN4CCCC4)cc3)[nH]c3nccc(Cl)c23)ccc1C` [Example 38, N-(5-(4-chloro-2-(4-(2-(pyrrolidin-1-yl)ethoxy)phenyl)-1H-pyrrolo[2,3-b]pyridin-3-yl)-2-methylphenyl)acrylamide], the IC50 was not above 100 nM at HER2 INS YVMA; not above 100 nM on EGFR wt; not above 100 nM in the series with H1975; not above 100 nM on EGFR T790ML858R; 100 to 500 nM with A431. Also, the GI50 in series [1] and in series [2] was not above 100 nM in each case. In series [3], the “Stability in presence of mouse liver microsomes without cofactor NADPH [% remaining after 50 min]” value was more than 99 % remaining after 50 min.

Regarding `C=CC(=O)Nc1cc(-c2c(-c3ccc(N4CCN(C)CC4)cc3)[nH]c3ncc(C(=O)NC4CCCCC4)cc23)ccc1C` [Example 120, 3-(3-acrylamido-4-methylphenyl)-N-cyclohexyl-2-(4-(4-methylpiperazin-1-yl)phenyl)-1H-pyrrolo[2,3-b]pyridine-5-carboxamide], the IC50 against HER2 INS YVMA was not above 100 nM; at EGFR wt, not above 100 nM; with H1975, 100 to 500 nM; on EGFR T790ML858R, not above 100 nM; in the series on A431, 100 to 500 nM. Further, the GI50 in series [1] and in series [2] was 100 to 500 nM throughout. In series [3], the “Stability in presence of mouse liver microsomes without cofactor NADPH [% remaining after 50 min]” value is given as more than 99 % remaining after 50 min.

With `C=CC(=O)N1CCc2ccc(-c3c(-c4cccc(OCCN5CCCC5)c4)[nH]c4nccc(OCC)c34)cc21` [Example 109, 1-(6-(4-ethoxy-2-(3-(2-(pyrrolidin-1-yl)ethoxy)phenyl)-1H-pyrrolo[2,3-b]pyridin-3-yl)indolin-1-yl)prop-2-en-1-one], the IC50 on HER2 INS YVMA is not above 100 nM; against EGFR wt, not above 100 nM; in the series on H1975 it was not above 100 nM; on EGFR T790ML858R it was not above 100 nM; with A431 it was 500 to 1000 nM. For the same compound, the GI50 in series [1] and in series [2] was 100 to 500 nM in each case. In addition, the “Stability in presence of mouse liver microsomes without cofactor NADPH [% remaining after 50 min]” value in series [3] is given as 77 % remaining after 50 min.

With `C=CC(=O)N1CCc2ccc(-c3c(-c4ccc(OCCCN(C)C)cc4)[nH]c4nccc(Cl)c34)cc21` [Example 71, 1-(6-(4-chloro-2-(4-(3-(dimethylamino)propoxy)phenyl)-1H-pyrrolo[2,3-b]pyridin-3-yl)indolin-1-yl)prop-2-en-1-one], the 50% inhibitory concentration (IC50) at HER2 INS YVMA is not above 100 nM; against EGFR wt, not above 100 nM; with H1975 it was 100 to 500 nM; at EGFR T790ML858R, not above 100 nM; in the series on A431, 500 to 1000 nM. Further, the results for the GI50 in series [1] and in series [2] were 500 to 1000 nM and 100 to 500 nM, respectively. The “Stability in presence of mouse liver microsomes without cofactor NADPH [% remaining after 50 min]” value in series [3] is more than 99 % remaining after 50 min.

As to `C=CC(=O)N1CCOc2ccc(-c3c(-c4ccnc(N5CCN(C)CC5)c4)[nH]c4nccc(Cl)c34)cc21` [Example 98, 1-(6-(4-chloro-2-(2-(4-methylpiperazin-1-yl)pyridin-4-yl)-1H-pyrrolo[2,3-b]pyridin-3-yl)-2H-benzo[b][1,4]oxazin-4(3H)-yl)prop-2-en-1-one 2,2,2-trifluoroacetate], the 50% inhibitory concentration (IC50) on HER2 INS YVMA was not above 100 nM; against EGFR wt, not above 100 nM; with H1975, 100 to 500 nM; on EGFR T790ML858R, not above 100 nM; with A431, 500 to 1000 nM. The GI50 in series [1] and in series [2] was 100 to 500 nM in each case. The “Stability in presence of mouse liver microsomes without cofactor NADPH [% remaining after 50 min]” value in series [3] is on record as more than 99 % remaining after 50 min.

Regarding `C=CC(=O)Nc1cc(-c2c(-c3cccc(OCCN4CCCC4)c3)[nH]c3ncc(C(=O)OC(C)C)cc23)ccc1C` [Example 170, isopropyl 3-(3-acrylamido-4-methylphenyl)-2-(3-(2-(pyrrolidin-1-yl)ethoxy)phenyl)-1H-pyrrolo[2,3-b]pyridine-5-carboxylate], the IC50 against HER2 INS YVMA was not above 100 nM; on EGFR wt, not above 100 nM; in the series with H1975, 100 to 500 nM; on EGFR T790ML858R it was not above 100 nM; with A431, 1000 to 100000 nM. For the same compound, the GI50 in series [1] and in series [2] was 100 to 500 nM each time. The “Stability in presence of mouse liver microsomes without cofactor NADPH [% remaining after 50 min]” value in series [3] is listed as more than 99 % remaining after 50 min.
